Earlier results, collected in patent US20250066504A1, “USE OF OREGOVOMAB AND PARP INHIBITORS FOR TREATMENT OF OVARIAN CANCER” (CANARIABIO INC., priority 2022, published 2025).
Values joined by “and” are separate entries in the source; they are usually repeats but may differ in a detail not shown here. Identical values can stand only once. Like-named read-outs stand apart in the source and are kept apart here.

Assays:
[1] = 300 mg dose
[2] = for grade 3/4 thrombocytopenia rate in the first 30 days: classification tree model
[3] = target: P-glycoprotein (P-gp) (Homo sapiens, UniProt P08183)
P-glycoprotein (P-gp), sequence (P08183 whole entry): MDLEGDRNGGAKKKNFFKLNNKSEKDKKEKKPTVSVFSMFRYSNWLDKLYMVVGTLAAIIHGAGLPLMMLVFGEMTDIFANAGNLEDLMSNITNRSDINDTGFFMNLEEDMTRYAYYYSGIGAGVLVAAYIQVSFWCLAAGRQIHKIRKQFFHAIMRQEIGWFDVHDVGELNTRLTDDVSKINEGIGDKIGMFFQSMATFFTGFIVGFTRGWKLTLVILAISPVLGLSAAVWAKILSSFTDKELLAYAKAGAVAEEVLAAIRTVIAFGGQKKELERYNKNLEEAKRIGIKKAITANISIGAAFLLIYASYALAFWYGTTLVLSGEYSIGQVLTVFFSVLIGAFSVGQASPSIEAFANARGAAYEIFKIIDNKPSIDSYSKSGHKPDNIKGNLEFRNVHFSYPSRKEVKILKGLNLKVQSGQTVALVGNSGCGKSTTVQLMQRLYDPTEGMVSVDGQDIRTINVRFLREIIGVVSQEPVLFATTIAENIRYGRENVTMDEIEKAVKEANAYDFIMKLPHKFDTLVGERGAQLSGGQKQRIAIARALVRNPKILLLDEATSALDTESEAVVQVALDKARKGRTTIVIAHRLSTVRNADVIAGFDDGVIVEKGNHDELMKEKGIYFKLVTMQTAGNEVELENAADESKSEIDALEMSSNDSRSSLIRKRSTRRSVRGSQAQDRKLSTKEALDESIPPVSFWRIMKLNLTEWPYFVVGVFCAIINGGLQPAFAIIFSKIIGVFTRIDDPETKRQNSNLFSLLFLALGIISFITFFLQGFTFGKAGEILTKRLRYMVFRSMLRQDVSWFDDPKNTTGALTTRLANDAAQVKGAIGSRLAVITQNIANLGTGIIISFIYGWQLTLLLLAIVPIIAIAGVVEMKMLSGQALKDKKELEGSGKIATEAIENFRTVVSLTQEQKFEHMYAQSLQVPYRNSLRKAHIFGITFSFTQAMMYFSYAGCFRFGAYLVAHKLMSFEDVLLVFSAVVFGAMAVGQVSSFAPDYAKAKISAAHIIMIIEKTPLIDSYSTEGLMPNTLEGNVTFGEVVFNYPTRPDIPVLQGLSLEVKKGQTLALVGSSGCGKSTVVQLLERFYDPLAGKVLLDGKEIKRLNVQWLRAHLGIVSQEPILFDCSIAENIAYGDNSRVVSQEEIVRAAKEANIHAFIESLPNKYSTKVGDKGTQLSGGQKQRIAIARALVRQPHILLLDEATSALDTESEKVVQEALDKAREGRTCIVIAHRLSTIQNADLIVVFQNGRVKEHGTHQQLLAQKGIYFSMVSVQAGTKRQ

[4] = test system: cells with HRD
[5] = test system: BRCA1-mutant xenograft; conditions: dosed orally
[6] = test system: BRCA1-mutant breast cancer (MDA-MB-436)
[7] = test system: BRCA2-mutant pancreatic cancer (CAPAN-1)
[8] = test system: patient-derived Ewing sarcoma; conditions: mouse, in vivo
[9] = test system: patient-derived ovarian and breast cancer xenograft; conditions: in vivo
[10] = not given; remark: listed apart in the source
[11] = test system: platinum-sensitive, recurrent ovarian cancer
[12] = test system: ovarian cancer
[13] = in vivo
[14] = human, in vivo
[15] = test system: CA125
[16] = test system: CA-125-expressing tumors; conditions: mouse, in vivo
[17] = test system: normal human organs and tissues
[18] = test system: adenocarcinomas expressing the CA125 antigen
[19] = normal rats
[20] = normal rabbits
[21] = test system: tumor; conditions: tumor-bearing mice
[22] = 100 times the estimated human dose equivalent (2 mg/60 kg body weight)
[23] = 100 times the estimated human dose equivalent (2 mg/60 kg body weight); remark: listed apart in the source
[24] = test system: immune suppressive malignancy; conditions: immune initiation alone
[25] = human, in vivo; remark: listed apart in the source
[26] = test system: platinum-sensitive disease; conditions: added to gemcitabine and carboplatin
[27] = test system: platinum-sensitive recurrent ovarian cancer; conditions: added to standard chemotherapy, followed by maintenance until progression
[28] = test system: platinum resistant disease
[29] = test system: advanced epithelial ovarian, adnexal, or primary peritoneal cancer, Stage III and Stage IV; conditions: K-M method
[30] = lower baseline platelets (<180×10^9/L)
[31] = HRDpos (Within non-gBRCAmut Cohort)
[32] = Non-gBRCAmut Cohort (Regardless of HRD Status)

NC(=O)c1cccc2cn(-c3ccc([C@@H]4CCCNC4)cc3)nc12 [Niraparib]
bone marrow suppression (neutropenia, thrombocytopenia, and anemia), subjects [1]: 20-40% | hypertension/hypertensive crisis, subjects ([1]; treatment for up to two years): 9% | grade 3/4 thrombocytopenia rate in the first 30 days ([2]; baseline body weight <77 kg or baseline platelet count <150,000 μL): approximately 30% | grade 3/4 thrombocytopenia rate in the first 30 days ([2]; baseline body weight <77 kg or baseline platelet count <150,000 μL, listed as niraparib): 35.4% and ~30% | incidence of grade 3 or 4 thrombocytopenia in the first 30 days ([2]; baseline body weight ≥77 kg): 14% | incidence of grade 3 or 4 thrombocytopenia in the first 30 days ([2]; body weight <58 kg): 43% | subjects with a dose reduction ([2]; body weight <58 kg): approximately 80% | grade 3/4 thrombocytopenia rate in the first 30 days ([2]; body weight >77 kg and platelet count >150,000 μL): 11.5% | treatment discontinuations ([2]; highest quartile (≥77 kg)): 10% | frequency of thrombocytopenia Grade ≥1 [2, 30]: 76% | frequency of thrombocytopenia Grade ≥3 [2, 30]: 45% | treatment discontinuations ([2]; lower body weight (<58 kg quartile)): 24% | subjects with a dose reduction ([2]; weight greater than or equal to 77 kg): 59% | substrate for P-gp [3]: relatively poor substrate | synthetic lethality ([4]; cells with HRD): induce synthetic lethality | effect on normal DNA repair mechanisms ([4]; pre-clinical models): inhibit normal DNA repair mechanisms | reduction in tumor weight compared with control [5]: > 90% | tumor response [5]: tumor regression | antitumor activity [6]: strong antitumor activity | antitumor activity [7]: strong antitumor activity | antitumor activity [8]: strong antitumor activity | response in patient-derived xenograft models [9]: demonstrated response in both BRCAmut and BRCA wild-type tumors | incidence of MDS/AML (5 of 367): 1.4% | anemia (all grades) (human, in vivo): 49% | constipation (all grades) (human, in vivo): 40% | decreased platelet count (all grades) (human, in vivo): 20% | fatigue (all grades) (human, in vivo): 46% | nausea (all grades) (human, in vivo): 74% | neutropenia (all grades) (human, in vivo): 18% | on-treatment deaths (human, in vivo): no on-treatment deaths | subjects with at least 1 treatment-emergent adverse event (TEAE) (human, in vivo): All 367 | thrombocytopenia (all grades) (human, in vivo): 46% | vomiting (all grades) (human, in vivo): 34% | TEAEs leading to dose reduction (overall safety population): 69% | TEAEs leading to treatment discontinuation (overall safety population): 15% | TEAEs leading to treatment interruption (overall safety population): 67% | incidence of Grade 3 or 4 TEAEs (overall safety population): 74% | incidence of serious adverse events (SAEs) (overall safety population): 30% | correlation between exposure level (plasma concentration) and QTc changes (ΔQTcF) ([10]; in vivo): no correlation | clinically significant abnormal ECG changes, including QTc interval prolongation, attributed to niraparib ([10]; n=26): no reports | QT interval ([10]; therapeutic dose): did not prolong | HR (niraparib:placebo) [11, 31]: 0.38 | Median PFS [11, 31]: 12.9 months | HR (niraparib:placebo) [11, 32]: 0.45 | Median PFS [11, 32]: 9.3 months | Median PFS ([11]; gBRCAmut Cohort, 300 mg QD): 21.0 months | HR (niraparib:placebo) ([11]; gBRCAmut Cohort, stratified Cox proportional hazards model): 0.27 | efficacy at the reduced dose ([11]; retrospective analyses from NOVA): did not compromise efficacy | HR ([11]; subjects with HRDneg tumors): 0.58 | Median PFS ([11]; subjects with HRDneg tumors): 6.9 months | ORR ([12]; 98 subjects in the HRD-positive cohort, RECIST v1.1, 300 mg once daily): 24% | Estimated median DOR ([12]; HRD-positive cohort): 8.3 months | new safety signals ([12]; in vivo): No new safety signals | subjects achieving an overall response ([12]; primary efficacy population (13 of 47)): 28% | ORR ([12]; tBRCAm ovarian cancer, platinum-refractory disease (3/16)): 19% | ORR ([12]; tBRCAm ovarian cancer, platinum-resistant disease (6/21)): 29% | ORR ([12]; tBRCAm ovarian cancer, platinum-sensitive disease (7/18)): 39% | effect of food on absorption [13]: does not significantly affect

O=C(c1cc(Cc2n[nH]c(=O)c3ccccc23)ccc1F)N1CCN(C(=O)C2CC2)CC1 [olaparib]
myelodysplastic syndrome (MDS) and acute myeloid leukemia (AML) [14]: have been observed

Oregovomab
affinity of binding to CA125 [15]: 1.16e+10 M⁻¹ | binding force to cancer antigen 125 (CA-125) ([15]; during blood circulation): less than nano units | ascites production [16]: inhibited ascites production | survival [16]: long-term survival | tumor size [16]: reduced tumor size | cross-reactivity with selected normal human organs and tissues [17]: does not show any significant cross-reactivity | binding to adenocarcinomas expressing the CA125 antigen [18]: selective binding | humoral response [19]: strong humoral response | humoral response [20]: strong humoral response | cellular responses [21]: evident | humoral response [21]: strong humoral response | survival ([21]; compared to controls): increase in survival | tumor size ([21]; compared to controls): decrease in tumor size | acute toxicity [22]: lack of significant acute toxicity | acute toxicity [23]: lack of significant acute toxicity | effect on the clinical course of disease [24]: insufficient to alter the clinical course of disease | apparent terminal half-life (t1/2z) [25]: around 33 hours | clearance on repeat administration [25]: accelerated | dose of the radiotracer eliminated in the urine [25]: less than 50% | mean residence time (MRT) [25]: about 45 hours | plasma clearance [25]: around 110 mL/minute

bevacizumab
OS [26]: no difference in OS | PFS [26]: improved PFS | median overall survival [27]: improved the median overall survival | PFS ([28]; added to pegylated liposomal doxorubicin, weekly paclitaxel, or topotecan): improved PFS | OS ([28]; added to single agent chemotherapy): not OS

paclitaxel/carboplatin
OS (median) [29]: 43.2 months | PFS (median) [29]: 12.2 months | time to clinical progression (TTCP) (median) [29]: 13.6 months
